Source: patent US4628104A, “Imidazole ketone derivatives” (G. D. Searle & Co., priority 1985, dated 1986)
≈ marks a conversion by molar mass, not a printed value. Where “and” joins values, the source holds several entries; their conditions need not be identical. Equal entries are not always repeated. Structures can show the parent of a compound that is named as a salt. Where two headings read alike, the source gives them in different places.

Tests used:
B. fragilis NCTC 10581 = test: Anti-anaerobic activity, microtitre plate broth dilution, strain A; type: cell-based, Bacteroides fragilis; settings: for MBC / MIC: Bacteroides fragilis, NCTC10581, 48 h; for MBC: read-out: MBC (Minimum Bactericidal Concentration); for MIC: 48 hours at 37° C., anaerobic, read-out: MIC (Minimum Inhibitory Concentration)
B. fragilis NCTC 9343 = test: Anti-anaerobic activity, microtitre plate broth dilution, strain B; type: cell-based, Bacteroides fragilis; settings: for MBC / MIC: Bacteroides fragilis, NCTC9343, 48 h; for MBC: read-out: MBC (Minimum Bactericidal Concentration); for MIC: read-out: MIC (Minimum Inhibitory Concentration)
[1] = tested on: B. fragilis MZ-R ATCC 11295; test: Anti-anaerobic activity, microtitre plate broth dilution, strain D; type: cell-based, Bacteroides fragilis; settings: for MBC / MIC: Bacteroides fragilis, ATCC11295, 48 h; for MBC: 99.9% reduction in viable count, 48 hours, read-out: MBC (Minimum Bactericidal Concentration); for MIC: read-out: MIC (Minimum Inhibitory Concentration)
B. fragilis WS-1 = test: Anti-anaerobic activity, microtitre plate broth dilution, strain E; type: cell-based; settings: Bacteroides fragilis, WS1, 48 h, 48 hours at 37° C., read-out: MIC (Minimum Inhibitory Concentration)
B. fragilis NCTC 9344 = test: Anti-anaerobic activity, microtitre plate broth dilution, strain C; type: cell-based; settings: Bacteroides fragilis, NCTC9344, 48 h; for MIC: 48 hours at 37° C., anaerobic, read-out: MIC (Minimum Inhibitory Concentration); for MBC: 99.9% reduction in viable count, 48 hours, read-out: MBC (Minimum Bactericidal Concentration)
[2] = tested on: Clostridium perfringens NCTC 523; test: microbe, parasite or virus in culture; type: cell-based; settings: NCTC523
[3] = tested on: Fusobacterium necrophorum ATCC 11295; test: Anti-anaerobic activity, additional strains, strain J; type: cell-based
[4] = tested on: Peptococcus magnus ATCC 29328; test: Anti-anaerobic activity, additional strains, strain K; type: cell-based; settings: Finegoldia magna, ATCC29328
[5] = tested on: Propionibacterium acnes NCTC 737; test: Anti-anaerobic activity, additional strains, strain N; type: cell-based; settings: Cutibacterium acnes, NCTC737
[6] = tested on: Propionibacterium acnes NCTC 7337; test: Anti-anaerobic activity, additional strains, strain O; type: cell-based; settings: Cutibacterium acnes, NCTC7337
[7] = tested on: Campylobacter fetus ATCC 29428; test: Anti-anaerobic activity, additional strains, strain I; settings: ATCC29428
[8] = tested on: Peptostreptococcus anaerobicus ATCC 27337; test: Anti-anaerobic activity, additional strains, strain M; settings: ATCC27337
[9] = tested on: Clostridium perfringens NCTC 8237; test: microbe, parasite or virus in culture; type: cell-based; settings: NCTC8237, strain G
[10] = tested on: Peptococcus prevotti ATCC 9321; test: Anti-anaerobic activity, additional strains, strain L; type: cell-based
Clostridium difficile CI = test: Anti-anaerobic activity, additional strains, strain H; settings: Clostridioides difficile
[11] = strain A, 99.9% reduction in viable count, 48 hours
[12] = 99.9% reduction in viable count, 48 hours
[13] = strain D, 48 hours at 37° C., anaerobic
[14] = ATCC11295, strain J, read-out: MIC

Row | Structure (SMILES) | MBC (B. fragilis NCTC 10581; [11]) | MIC (B. fragilis NCTC 10581; strain A) | MBC (B. fragilis NCTC 9343; [12]) | MIC (B. fragilis NCTC 9343; 48 hours at 37° C., anaerobic) | MBC ([1]; strain D) | MIC [1, 13] | MIC (B. fragilis WS-1) | MIC (B. fragilis NCTC 9344) | MBC (B. fragilis NCTC 9344) | MIC [2] | MIC [3, 14] | MIC ([5]; strain N, read-out: MIC) | MIC [7] | MIC [8] | MIC [9] | further results
1 | CCCCCCCC(=O)C(Cn1ccnc1)c1ccc(C)cc1 (stereo not drawn) [Example 17, 1-(Imidazol-1-yl)-2-(4-methylphenyl)decan-3-one hydrochloride] | 100 µg/mL | 12.5 µg/mL | 100 µg/mL | 12.5 µg/mL | 100 µg/mL | 3.1 µg/mL | 12.5 µg/mL | – | – | – | – | – | – | – | – | –
2 | CC(C)(C)C(Cn1ccnc1)C(=O)c1ccc(Cl)cc1Cl (stereo not drawn) [Example 22, 1-(2,4-Dichlorophenyl)-3,3-dimethyl-2-(imidazol-1-ylmethyl)butan-1-one] | – | 50 µg/mL (≈ 154 µM) | – | 50 µg/mL (≈ 154 µM) | – | 50 µg/mL (≈ 154 µM) | 100 µg/mL (≈ 307 µM) | 50 µg/mL (≈ 154 µM) | – | – | – | – | – | – | – | –
3 | CSc1nccn1CC(C(=O)c1ccc(Cl)cc1Cl)c1ccccc1 (stereo not drawn) [Example 24, 1-(2,4-Dichlorophenyl)-2-phenyl-3-(2-thiomethylimidazol-1-yl)propan-1-one] | 100 µg/mL (≈ 256 µM) | 25 µg/mL (≈ 63.9 µM) | 100 µg/mL (≈ 256 µM) | 25 µg/mL (≈ 63.9 µM) | 100 µg/mL (≈ 256 µM) | 25 µg/mL (≈ 63.9 µM) | 50 µg/mL (≈ 128 µM) | 25 µg/mL (≈ 63.9 µM) | 100 µg/mL (≈ 256 µM) | – | – | – | – | – | – | –
4 | Cc1ncc([N+](=O)[O-])n1CCO [Metronidazole, reference compound] | 0.8 µg/mL (≈ 4.67 µM) | – | 0.8 µg/mL (≈ 4.67 µM) | 0.8 µg/mL (≈ 4.67 µM) | – | – | – | – | – | 0.08 µg/mL (≈ 0.467 µM) | 10 µg/mL (≈ 58.4 µM) | 10 µg/mL (≈ 58.4 µM) | 10 µg/mL (≈ 58.4 µM) | 0.3 µg/mL (≈ 1.75 µM) | – | MBC (B. fragilis NCTC 10581): 1.2 µg/mL (≈ 7.01 µM); MBC (Minimum Bactericidal Concentration) (B. fragilis NCTC 10581; [11]): 1.2 µg/mL and 0.6 µg/mL; MBC (Minimum Bactericidal Concentration) (B. fragilis NCTC 9343; [12]): 1.2 µg/mL and 0.6 µg/mL; MIC (Minimum Inhibitory Concentration) (B. fragilis NCTC 9343; 48 hours at 37° C., anaerobic): 0.6 µg/mL and 1.2 µg/mL; MIC [1]: 10 µg/mL (≈ 58.4 µM); MIC (Minimum Inhibitory Concentration) [1, 13]: 10.9 µg/mL and 10.0 µg/mL and 10 µg/mL; MIC ([4]; strain K, read-out: MIC): 0.6 µg/mL (≈ 3.51 µM); MIC ([6]; strain O, read-out: MIC): 10 µg/mL (≈ 58.4 µM)
5 | O=C(c1cccnc1)C(Cn1ccnc1)c1ccccc1 (stereo not drawn) [Example 19, 3-(Imidazol-1-yl)-2-phenyl-1-(3-pyridyl)propan-1-one] | 50 µg/mL (≈ 180 µM) | 12.5 µg/mL (≈ 45.1 µM) | 50 µg/mL (≈ 180 µM) | 12.5 µg/mL (≈ 45.1 µM) | 50 µg/mL (≈ 180 µM) | 12.5 µg/mL (≈ 45.1 µM) | 6.2 µg/mL (≈ 22.4 µM) | 12.5 µg/mL (≈ 45.1 µM) | 50 µg/mL (≈ 180 µM) | – | – | – | – | – | – | –
6 | Cc1ccc(C(Cn2cncn2)C(=O)c2ccc(Cl)cc2Cl)cc1 (stereo not drawn) [Example 16, 1-(2,4-Dichlorophenyl)-2-(4-methylphenyl)-3-(1,2,4-triazol-1-yl)propan-1-one hydrochloride] | 3.1 µg/mL | 3.1 µg/mL | 3.1 µg/mL | 3.1 µg/mL | 15 µg/mL | 0.8 µg/mL | 1.5 µg/mL | 3.1 µg/mL | 3.1 µg/mL | – | – | – | – | – | – | –
7 | O=C(c1ccc(Cl)cc1Cl)C(Cn1ccnc1)c1ccccc1 (stereo not drawn) [Example 2, 1-(2,4-Dichlorophenyl)-3-(imidazol-1-yl)-2-phenylpropan-1-one] | 0.8 µg/mL (≈ 2.32 µM) | 0.8 µg/mL (≈ 2.32 µM) | 0.8 µg/mL (≈ 2.32 µM) | 0.8 µg/mL (≈ 2.32 µM) | 0.8 µg/mL (≈ 2.32 µM) | 0.8 µg/mL (≈ 2.32 µM) | 0.8 µg/mL (≈ 2.32 µM) | 0.8 µg/mL (≈ 2.32 µM) | 0.8 µg/mL (≈ 2.32 µM) | 0.8 µg/mL (≈ 2.32 µM) | – | – | 0.8 µg/mL (≈ 2.32 µM) | 0.8 µg/mL (≈ 2.32 µM) | 0.8 µg/mL (≈ 2.32 µM) | MIC ([3]; ATCC11295): 0.8 µg/mL (≈ 2.32 µM); MIC [4]: 0.8 µg/mL (≈ 2.32 µM); MIC [10]: 0.8 µg/mL (≈ 2.32 µM); MIC [5]: 0.8 µg/mL (≈ 2.32 µM); MIC [6]: 0.8 µg/mL (≈ 2.32 µM); MIC (Clostridium difficile CI): 0.8 µg/mL (≈ 2.32 µM)
8 | O=C(c1ccc(Cl)cc1Cl)C(Cn1cncn1)c1ccccc1 (stereo not drawn) [Example 23, 1-(2,4-Dichlorophenyl)-2-phenyl-3-(1,2,4-triazol-1-yl) propan-1-one] | 0.8 µg/mL (≈ 2.31 µM) | 0.8 µg/mL (≈ 2.31 µM) | 0.8 µg/mL (≈ 2.31 µM) | 0.8 µg/mL (≈ 2.31 µM) | 0.8 µg/mL (≈ 2.31 µM) | 0.8 µg/mL (≈ 2.31 µM) | 0.8 µg/mL (≈ 2.31 µM) | 0.8 µg/mL (≈ 2.31 µM) | 0.8 µg/mL (≈ 2.31 µM) | – | – | – | – | – | – | –
9 | Cc1ccc(C(Cn2ccnc2)C(=O)c2ccc(Cl)cc2Cl)cc1 (stereo not drawn) [Example 15, 1-(2,4-Dichlorophenyl)-3-(imidazol-1-yl)-2-(4-methylphenyl) propan-1-one] | 0.8 µg/mL (≈ 2.23 µM) | 0.8 µg/mL (≈ 2.23 µM) | 0.8 µg/mL (≈ 2.23 µM) | 0.8 µg/mL (≈ 2.23 µM) | 0.8 µg/mL (≈ 2.23 µM) | 0.8 µg/mL (≈ 2.23 µM) | 0.8 µg/mL (≈ 2.23 µM) | 0.8 µg/mL (≈ 2.23 µM) | 0.8 µg/mL (≈ 2.23 µM) | 0.3 µg/mL (≈ 0.835 µM) | 0.3 µg/mL (≈ 0.835 µM) | 0.6 µg/mL (≈ 1.67 µM) | – | – | 0.6 µg/mL (≈ 1.67 µM) | MIC ([6]; strain O, read-out: MIC): 0.1 µg/mL (≈ 0.278 µM)
10 | O=C(Cc1ccccc1)C(Cn1ccnc1)c1ccccc1 (stereo not drawn) [Example 25, 1,3-Diphenyl-4-(imidazol-1-yl)butan-2-one] | – | 25 µg/mL (≈ 86.1 µM) | – | 25 µg/mL (≈ 86.1 µM) | – | 12.5 µg/mL (≈ 43 µM) | 25 µg/mL (≈ 86.1 µM) | 25 µg/mL (≈ 86.1 µM) | – | 0.8 µg/mL (≈ 2.76 µM) | 100 µg/mL (≈ 344 µM) | 50 µg/mL (≈ 172 µM) | 25 µg/mL (≈ 86.1 µM) | 1.5 µg/mL (≈ 5.17 µM) | 0.8 µg/mL (≈ 2.76 µM) | MIC ([4]; strain K, read-out: MIC): 6.2 µg/mL (≈ 21.4 µM); MIC [10]: 0.8 µg/mL (≈ 2.76 µM); MIC (Clostridium difficile CI; strain H): 25 µg/mL (≈ 86.1 µM)
11 | O=C(c1cccnc1)C(Cn1cncn1)c1ccccc1 (stereo not drawn) [Example 20, 2-Phenyl-1-(3-pyridyl)-3-(1,2,4-triazol-1-yl)propan-1-one] | – | 100 µg/mL (≈ 359 µM) | – | 100 µg/mL (≈ 359 µM) | – | 100 µg/mL (≈ 359 µM) | 100 µg/mL (≈ 359 µM) | 100 µg/mL (≈ 359 µM) | – | – | – | – | – | – | – | –
12 | O=C(c1cc(Cl)cc(Cl)c1)C(Cn1ccnc1)c1ccccc1 (stereo not drawn) [Example 18, 1-(3,5-Dichlorophenyl)-3-(imidazol-1yl)-2-phenyl propan-1-one] | 1.5 µg/mL (≈ 4.34 µM) | 0.8 µg/mL (≈ 2.32 µM) | 1.5 µg/mL (≈ 4.34 µM) | 1.5 µg/mL (≈ 4.34 µM) | 1.5 µg/mL (≈ 4.34 µM) | 0.8 µg/mL (≈ 2.32 µM) | 1.5 µg/mL (≈ 4.34 µM) | 0.8 µg/mL (≈ 2.32 µM) | 0.8 µg/mL (≈ 2.32 µM) | 3.1 µg/mL (≈ 8.98 µM) | 6.2 µg/mL (≈ 18 µM) | 6.2 µg/mL (≈ 18 µM) | 3.1 µg/mL (≈ 8.98 µM) | 6.2 µg/mL (≈ 18 µM) | 3.1 µg/mL (≈ 8.98 µM) | MIC [4]: 3.1 µg/mL (≈ 8.98 µM); MIC [10]: 3.1 µg/mL (≈ 8.98 µM); MIC [6]: 3.1 µg/mL (≈ 8.98 µM); MIC (Clostridium difficile CI; strain H): 1.5 µg/mL (≈ 4.34 µM)
13 | O=C(c1ccccn1)C(Cn1ccnc1)c1ccccc1 (stereo not drawn) [Example 21, 3-(Imidazol-1-yl)-2-phenyl-1-(2-pyridyl)propan-1-one] | 12.5 µg/mL (≈ 45.1 µM) | 12.5 µg/mL (≈ 45.1 µM) | 25 µg/mL (≈ 90.1 µM) | 25 µg/mL (≈ 90.1 µM) | 6.2 µg/mL (≈ 22.4 µM) | 6.2 µg/mL (≈ 22.4 µM) | 25 µg/mL (≈ 90.1 µM) | 6.2 µg/mL (≈ 22.4 µM) | 12.5 µg/mL (≈ 45.1 µM) | – | – | – | – | – | – | –
